Data: ChEMBL document CHEMBL1201862, “PubChem BioAssay data set” (2004)
One block for each compound: values may come before it. Calls of active or inactive are those of the source.

Tests used:
[1] = Luminescence Cell-Based Dose Retest to Confirm Inhibitors of Cancer Stem Cells. [Related pubchem assays (depositor defined):AID2717, AID2721]; type: functional; details: Homo sapiens
[2] = target: Heat shock protein HSP 90-alpha (Homo sapiens, UniProt P07900); type: functional, organism-based
[3] = target: Induced myeloid leukemia cell differentiation protein Mcl-1 (Homo sapiens, UniProt Q07820); type: functional
[4] = target: T1, High affinity choline transporter 1 (Homo sapiens, UniProt Q9GZV3); assay: CHT inhibitors, dose response, cell-based, 5-point CRC, membrane potential dye (AID 504840); type: functional
T1 sequence (Q9GZV3 whole entry): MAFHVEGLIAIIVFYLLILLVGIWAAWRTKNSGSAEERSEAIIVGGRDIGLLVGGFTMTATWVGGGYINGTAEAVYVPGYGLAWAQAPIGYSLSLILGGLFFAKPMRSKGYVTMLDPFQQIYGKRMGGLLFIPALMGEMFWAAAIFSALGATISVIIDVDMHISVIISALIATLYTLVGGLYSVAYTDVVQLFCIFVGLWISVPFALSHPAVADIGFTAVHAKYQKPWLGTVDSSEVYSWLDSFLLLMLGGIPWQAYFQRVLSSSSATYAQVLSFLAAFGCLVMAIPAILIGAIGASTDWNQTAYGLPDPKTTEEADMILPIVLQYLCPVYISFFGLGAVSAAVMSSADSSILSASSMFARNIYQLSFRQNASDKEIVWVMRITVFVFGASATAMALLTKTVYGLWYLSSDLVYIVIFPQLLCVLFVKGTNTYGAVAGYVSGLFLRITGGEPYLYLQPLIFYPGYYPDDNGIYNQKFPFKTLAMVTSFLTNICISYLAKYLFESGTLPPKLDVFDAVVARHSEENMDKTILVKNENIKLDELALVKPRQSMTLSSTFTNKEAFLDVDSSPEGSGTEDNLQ

[5] = test system: BJ; assay: cytotoxicity toward BJ-TERT fibroblasts, dose response, cell-based, RAS-independent, luminescence (AID 1933); type: functional; details: Homo sapiens
[6] = test system: BJ; assay: cells; type: functional, cell-based; details: Homo sapiens
[7] = HepG2 cell cytotoxicity, dose response, cytotoxicity control for Shn3 inhibitor project, CellTiter-Glo, cherry-picked (AID 624134); type: functional, cell-based
[8] = test system: BJ; assay: cytotoxicity toward BJ-TERT-LT-ST fibroblasts, dose response, cell-based, RAS-independent, luminescence (AID 1935); type: functional; details: Homo sapiens;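 note: BJ fibroblasts immortalized with TERT plus LT and ST oncogenes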
[9] = cytotoxicity toward DRD oncogenic fibroblasts, dose response, cell-based, non-viral oncogenic, luminescence (AID 1934); type: functional; details: Homo sapiens
[10] = Shn3 3'UTR reporter inhibitors, dose response, cell-based, Clone20 osteoblasts, firefly luciferase, cherry-picked (AID 624132); type: functional;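 note: firefly luciferase luminescence from reporter carrying the Shn3 3'UTR in osteoblasts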
[11] = test system: BJ; assay: cytotoxicity toward Ras-transformed BJeLR fibroblasts, dose response, cell-based, alamar blue fluorescence, cherrypicked samples (AID 2631); type: functional; details: Homo sapiens;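 note: confirmatory dose-response assay in RAS-dependent BJ fibroblasts engineered with TERT, LT and ST, with cytotoxicity read by fluorescence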
[12] = target: T2, Short transient receptor potential channel 4 (Mus musculus, UniProt Q9QUQ5); assay: mouse TRPC4 channel inhibitors, dose response, cell-based, HEK293 TRPC4/mu-opioid, Fluo-4 calcium (AID 434942); type: functional;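 note: potency of inhibitors blocking the TRPC4 calcium response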
T2 sequence (Q9QUQ5 whole entry): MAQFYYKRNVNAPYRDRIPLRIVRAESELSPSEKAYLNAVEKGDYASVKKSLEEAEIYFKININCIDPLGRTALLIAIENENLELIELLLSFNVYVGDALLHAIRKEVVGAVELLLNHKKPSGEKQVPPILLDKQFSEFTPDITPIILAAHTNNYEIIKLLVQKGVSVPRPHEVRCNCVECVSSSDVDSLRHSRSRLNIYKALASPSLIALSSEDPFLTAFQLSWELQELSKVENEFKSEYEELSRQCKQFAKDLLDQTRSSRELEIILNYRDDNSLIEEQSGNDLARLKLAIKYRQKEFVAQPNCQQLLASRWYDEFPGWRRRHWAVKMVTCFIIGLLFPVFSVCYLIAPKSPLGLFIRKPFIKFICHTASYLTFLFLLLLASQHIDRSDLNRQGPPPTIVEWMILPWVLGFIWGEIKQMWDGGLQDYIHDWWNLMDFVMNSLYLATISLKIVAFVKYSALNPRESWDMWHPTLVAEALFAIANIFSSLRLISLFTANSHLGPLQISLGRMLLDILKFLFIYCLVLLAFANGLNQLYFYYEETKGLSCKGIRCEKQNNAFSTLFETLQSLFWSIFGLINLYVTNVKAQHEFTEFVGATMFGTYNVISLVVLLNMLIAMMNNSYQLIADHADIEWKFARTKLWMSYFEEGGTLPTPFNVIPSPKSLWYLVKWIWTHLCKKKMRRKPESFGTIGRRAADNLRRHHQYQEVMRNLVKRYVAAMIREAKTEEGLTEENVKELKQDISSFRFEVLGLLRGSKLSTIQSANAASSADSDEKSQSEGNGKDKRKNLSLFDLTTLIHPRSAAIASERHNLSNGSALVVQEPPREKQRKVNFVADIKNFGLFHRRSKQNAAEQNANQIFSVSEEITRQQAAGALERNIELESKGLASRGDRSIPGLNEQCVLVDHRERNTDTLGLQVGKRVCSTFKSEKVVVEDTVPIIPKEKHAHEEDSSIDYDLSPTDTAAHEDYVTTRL

[13] = target: T3, Rac GTPase-activating protein 1 (Homo sapiens, UniProt Q9H0H5); assay: MgcRacGAP GTPase-activating activity inhibitors, confirmation, biochemical, ADP Hunter fluorescence, primary and confirmatory (AID 624330); type: functional
T3 sequence (Q9H0H5 whole entry): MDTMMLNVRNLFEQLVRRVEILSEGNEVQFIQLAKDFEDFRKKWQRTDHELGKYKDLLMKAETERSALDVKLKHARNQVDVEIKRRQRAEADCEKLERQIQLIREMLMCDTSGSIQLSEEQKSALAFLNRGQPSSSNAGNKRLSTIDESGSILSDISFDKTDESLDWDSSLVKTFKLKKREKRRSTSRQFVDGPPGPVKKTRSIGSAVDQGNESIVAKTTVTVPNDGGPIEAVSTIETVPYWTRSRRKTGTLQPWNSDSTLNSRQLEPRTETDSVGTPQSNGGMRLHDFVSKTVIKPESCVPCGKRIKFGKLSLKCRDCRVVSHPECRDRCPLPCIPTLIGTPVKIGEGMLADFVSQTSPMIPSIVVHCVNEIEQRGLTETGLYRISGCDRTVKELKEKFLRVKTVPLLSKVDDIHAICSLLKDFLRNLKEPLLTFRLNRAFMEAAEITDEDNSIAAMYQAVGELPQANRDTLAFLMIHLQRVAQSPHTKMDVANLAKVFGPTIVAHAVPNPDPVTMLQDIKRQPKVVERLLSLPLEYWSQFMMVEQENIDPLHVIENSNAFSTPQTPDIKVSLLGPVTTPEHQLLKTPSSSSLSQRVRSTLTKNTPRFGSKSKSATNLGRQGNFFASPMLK

[14] = target: T4, Mannose-6-phosphate isomerase (Homo sapiens, UniProt P34949); assay: human PMI inhibitors, high substrate, primary screen, biochemical, fluorescence intensity, high mannose 6-phosphate (AID 1220)
T4 sequence (P34949 whole entry): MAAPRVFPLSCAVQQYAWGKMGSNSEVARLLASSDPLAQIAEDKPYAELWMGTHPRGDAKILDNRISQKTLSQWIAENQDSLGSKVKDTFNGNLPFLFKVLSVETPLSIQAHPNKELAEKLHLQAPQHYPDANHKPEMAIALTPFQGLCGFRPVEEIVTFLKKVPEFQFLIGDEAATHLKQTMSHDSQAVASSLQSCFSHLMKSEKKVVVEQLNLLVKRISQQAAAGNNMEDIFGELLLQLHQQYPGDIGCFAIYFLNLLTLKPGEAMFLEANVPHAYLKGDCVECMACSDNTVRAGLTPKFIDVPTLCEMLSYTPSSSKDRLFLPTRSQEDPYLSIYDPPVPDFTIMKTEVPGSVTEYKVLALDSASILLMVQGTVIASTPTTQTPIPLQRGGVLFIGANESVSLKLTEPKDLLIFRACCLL

[15] = cytotoxicity in HEK-293T cells, dose response, cytotoxicity control for TCR NF-kB inhibitor project, luminescence, T-cell screen hits (AID 489026); type: functional, cell-based;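 note: cells exposed to compound about 14 hours before the viability readout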
[16] = target: T5, DNA repair and recombination protein RAD54-like (Homo sapiens, UniProt Q92698); assay: inhibitors of human RAD54 branch migration, confirmation, biochemical, fluorescence, cherry-picked samples, dose series (AID 651657); type: functional
T5 sequence (Q92698 whole entry): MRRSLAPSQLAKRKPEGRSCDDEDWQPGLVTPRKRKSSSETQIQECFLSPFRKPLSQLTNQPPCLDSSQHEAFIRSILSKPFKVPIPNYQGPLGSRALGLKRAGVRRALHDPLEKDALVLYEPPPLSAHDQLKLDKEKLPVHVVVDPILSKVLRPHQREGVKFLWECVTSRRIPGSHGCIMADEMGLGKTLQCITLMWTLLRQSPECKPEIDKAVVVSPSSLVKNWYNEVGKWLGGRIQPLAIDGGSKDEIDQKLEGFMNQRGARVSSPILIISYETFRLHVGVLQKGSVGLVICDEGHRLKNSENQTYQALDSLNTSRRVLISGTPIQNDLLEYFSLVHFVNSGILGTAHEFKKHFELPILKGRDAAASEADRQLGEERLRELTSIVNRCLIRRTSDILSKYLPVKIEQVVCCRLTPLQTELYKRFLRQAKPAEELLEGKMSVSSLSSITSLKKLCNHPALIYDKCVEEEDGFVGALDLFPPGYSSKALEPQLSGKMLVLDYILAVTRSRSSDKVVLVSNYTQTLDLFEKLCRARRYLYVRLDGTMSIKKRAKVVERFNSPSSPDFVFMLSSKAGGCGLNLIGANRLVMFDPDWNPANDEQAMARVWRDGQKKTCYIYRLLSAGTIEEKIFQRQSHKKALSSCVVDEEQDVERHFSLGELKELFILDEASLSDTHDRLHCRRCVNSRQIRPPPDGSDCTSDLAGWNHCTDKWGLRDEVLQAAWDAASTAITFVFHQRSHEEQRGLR

Sequence of Induced myeloid leukemia cell differentiation protein Mcl-1 (Q07820 whole entry): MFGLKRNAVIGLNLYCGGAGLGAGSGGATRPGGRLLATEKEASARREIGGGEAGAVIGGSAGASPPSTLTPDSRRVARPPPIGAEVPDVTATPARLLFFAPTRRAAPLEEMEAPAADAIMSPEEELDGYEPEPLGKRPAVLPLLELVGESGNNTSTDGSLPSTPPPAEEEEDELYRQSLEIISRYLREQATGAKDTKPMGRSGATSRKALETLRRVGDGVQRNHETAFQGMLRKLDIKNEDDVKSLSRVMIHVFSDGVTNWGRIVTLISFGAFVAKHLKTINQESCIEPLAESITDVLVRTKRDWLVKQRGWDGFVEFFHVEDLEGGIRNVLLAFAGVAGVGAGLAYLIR

SMILES: O=C(NCCCSc1ccccc1)c1cc(Br)ccc1O
AC50 [1]: 3.38 µM (active) | AC50 [2]: 4.6 µM (active)

IC50 [3]: 4.58 µM (not active)
SMILES: CC(=O)N1CCc2cc(S(=O)(=O)NC(Cc3ccccc3)C(=O)NC3CCCCCC3)ccc21 (stereo unspecified)

IC50 [4]: 11.5 µM (active)
SMILES: CN(Cc1ccccc1)C(=O)CN1CCN(C(c2ccccc2)c2ccccc2)CC1

SMILES: Cc1cccc(N2CCN(C(=S)Nc3ccc4nc(N5CCN(C)CC5)cc(C)c4c3)CC2)c1C
EC50 [5]: 1.22 µM (inconclusive) | EC50 [6]: 5.6 µM (inconclusive) | AC50 [7]: 6.83 µM (active) | EC50 [8]: 1.33 µM (inconclusive) | EC50 [9]: 2.46 µM (active) | AC50 [10]: 5.45 µM (active) | EC50 [11]: 0.585 µM (active)

EC50 [12]: 1.68 µM (active) | IC50 [13]: 100 µM (active) | IC50 [14]: > 50 µM (not active)
SMILES: CCOC(=O)C1=C(C)NC(=O)CC1c1cc2c(cc1[N+](=O)[O-])OCO2 (stereo unspecified)

SMILES: Cc1cc(C)cc(NS(=O)(=O)c2ccc(-c3cnc(C4CC4)o3)cc2)c1
EC50 [5]: 0.346 µM (active) | EC50 [6]: 26.2 µM (active) | EC50 [8]: 0.521 µM (inconclusive) | EC50 [9]: 0.525 µM (active) | EC50 [11]: < 0.104 µM (active) | IC50 [15]: > 80 µM (inactive)

IC50 [4]: 12.6 µM (active)
SMILES: O=C(c1ccc(COc2ccccc2[N+](=O)[O-])o1)N1CCCCCC1

AC50 [16]: 57.7 µM (active)
SMILES: Cc1nnc2c(N3CCN(CCO)CC3)nc3ccccc3n12

IC50 [3]: 5.25 µM (active)
SMILES: CCOC(=O)C1CCCN(c2ccc(NC(=O)c3snc4c(=O)[nH]c(C)nc34)cc2)C1 (stereo unspecified)

AC50 [16]: 40.7 µM (active)
SMILES: CCN(CC)CCNC(=O)c1cc2cc3ccc(OC)cc3nc2o1

AC50 [16]: 38.1 µM (active)
SMILES: CN1CCN(CCCNC(=O)c2cc3c(=O)oc4ccccc4c3s2)CC1

IC50 [3]: 3.44 µM (active)
SMILES: CC(=O)Nc1ccc(-c2csc(NC(=O)C3CC(=O)N(c4ccc5c(c4)OCCO5)C3)n2)cc1 (stereo unspecified)
